Patent publication US20250003011A1, “SAMPLE PREPARATION METHODS USING MODIFIED BASES FOR RAPID IDENTIFICATION AND SEQUENCING” (priority 2023, published 2025)

Key:
MANTA polymerase [1] = biological target: T1, MANTA polymerase (Geobacillus stearothermophilus, UniProt P52026); experiment: Incorporation of two modified nucleotides in one fill-in reaction, distribution detected by antibodies on hairpins; format: biochemical; set-up: Bst DNA Polymerase, Large Fragment (e.g., Manta®); purchased; settings: iodo-dUTP 5 μM and pseudo-dUTP 95 μM replacing dTTP; anti-iodouridine and anti-pseudouridine antibodies
T1 sequence (P52026 289-876 limits assumed): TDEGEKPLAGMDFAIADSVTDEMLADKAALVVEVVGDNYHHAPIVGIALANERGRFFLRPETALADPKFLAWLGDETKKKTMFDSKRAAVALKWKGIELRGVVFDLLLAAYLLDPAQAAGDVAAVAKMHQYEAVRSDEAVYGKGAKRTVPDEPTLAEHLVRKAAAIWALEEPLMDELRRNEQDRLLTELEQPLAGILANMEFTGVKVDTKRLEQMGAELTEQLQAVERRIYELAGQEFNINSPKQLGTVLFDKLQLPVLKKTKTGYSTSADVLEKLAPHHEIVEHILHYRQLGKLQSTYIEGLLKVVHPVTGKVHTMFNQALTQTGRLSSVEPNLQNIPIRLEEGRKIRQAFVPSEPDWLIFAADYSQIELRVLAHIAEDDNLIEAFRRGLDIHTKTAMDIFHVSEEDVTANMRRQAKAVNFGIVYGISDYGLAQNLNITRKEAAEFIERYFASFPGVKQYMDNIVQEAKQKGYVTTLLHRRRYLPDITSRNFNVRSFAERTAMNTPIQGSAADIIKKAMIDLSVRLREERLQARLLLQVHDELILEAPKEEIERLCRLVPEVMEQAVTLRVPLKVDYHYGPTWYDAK
Source text: After synthesis, the hairpin was assembled and assessed with both anti-iodouridine antibody and anti-pseudouridine antibody.
FIG. 4B: For each molecule, we counted the number of positions detected by either the anti-IdU or anti-pseudouridine over the expected total number of positions for this sequence. We then plotted the distribution of each modification for all the functional molecules.
One of the 50 long oligonucleotides described in Example 3 was used as a template to incorporate two different modified nucleotides at the same time. Both iodo-dUTP as well as pseudo-dUTP were included in the nucleotide mix (at 5 μM and 95 μM respectively) during the replication step to completely replace the natural base dTTP. After synthesis of the complementary strand, the hairpin was assembled and assessed with both anti-iodouridine antibody (clone OTI2F8 from Abcam) and anti-pseudouridine antibody (Cat. No. C15200236, Diagenode) (FIG. 4A).
The distribution of each modified base in the hairpin was determined for each modification (FIG. 4B).

MANTA polymerase [2] = biological target: T1, MANTA polymerase; experiment: Measurement of the KD of modified uridine triphosphates, single-adenine template, FITC primer, PAGE; settings: 65° C., 2 minutes; 100 μM dATP, dCTP, dGTP; no dTTP
Experimental: The reaction was supplemented with dATP, dCTP and dGTP as well as the uridine triphosphate tested (no dTTP was added to the reaction).
The KD is defined as the concentration of the modified dUTP required to produce 50% of fill in reaction. […] We then produced a second, simpler template comprising only one adenine in the template followed by 15 random bases excluding adenine (PS2972, SEQ ID NO:3). The template was designed such that the 3′ end of the complementary oligonucleotide tagged with FITC (PS1289, SEQ ID NO:4) ends at the base just before the adenine in the 32-base oligonucleotide. After annealing of these two oligonucleotides, there is thus only one A position where modified dUTP could be inserted (see FIG. 2A).
It was expected that if dCTP, dATP and dGTP were present in the reaction mix along with one of the modified uridine triphosphates, if the modified uridine was integrated by the polymerase, 16 bases would be added, thereby yielding a 32 base-long oligonucleotide tagged with FITC. […]
Polymerisation reactions were prepared with the Manta polymerase. […] Fluorescence of the reaction products were then quantified with ImageJ (National Institutes of Health).
For each modified uridine triphosphate, the ratio of fully extended product over the total amount of FITC-labelled oligonucleotide was calculated and plotted on a graph as a function of the concentration. […]

DeepVent DNA polymerase = biological target: T2, DeepVent DNA polymerase (Pyrococcus sp., UniProt Q51334, DEL493-1029); experiment: Elongation (fill-in) assay on 200-mer template with modified uridine triphosphates; format: biochemical; settings: modified nucleotide replaces dTTP at 100%; 72° C., 30 min
T2 construct: purchased
T2 sequence (Q51334 other isoform, or with tags, fused parts or gaps DEL493-1029): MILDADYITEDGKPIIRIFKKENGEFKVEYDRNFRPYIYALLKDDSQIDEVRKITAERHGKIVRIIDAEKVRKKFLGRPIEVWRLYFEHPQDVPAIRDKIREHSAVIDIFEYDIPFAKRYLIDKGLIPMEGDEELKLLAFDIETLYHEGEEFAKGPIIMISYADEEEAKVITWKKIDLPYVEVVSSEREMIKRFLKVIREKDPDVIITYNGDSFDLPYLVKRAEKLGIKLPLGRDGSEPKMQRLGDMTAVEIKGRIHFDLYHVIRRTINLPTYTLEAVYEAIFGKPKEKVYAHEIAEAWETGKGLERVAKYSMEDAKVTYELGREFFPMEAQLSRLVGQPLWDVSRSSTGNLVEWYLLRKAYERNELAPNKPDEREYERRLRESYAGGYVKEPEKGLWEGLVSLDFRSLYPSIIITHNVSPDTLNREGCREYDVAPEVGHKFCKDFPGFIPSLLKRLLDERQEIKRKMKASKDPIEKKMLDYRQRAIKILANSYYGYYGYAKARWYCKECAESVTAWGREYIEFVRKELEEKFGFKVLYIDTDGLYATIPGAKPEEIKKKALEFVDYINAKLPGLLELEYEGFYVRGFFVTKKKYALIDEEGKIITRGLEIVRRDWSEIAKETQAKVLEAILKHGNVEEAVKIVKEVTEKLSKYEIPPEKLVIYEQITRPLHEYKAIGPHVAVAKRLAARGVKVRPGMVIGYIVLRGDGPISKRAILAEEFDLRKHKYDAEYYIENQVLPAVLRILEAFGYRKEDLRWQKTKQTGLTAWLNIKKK
Experimental: (§1) A synthetic template of 200 bases was used to determine the capacity of Deep Vent and Manta DNA polymerase to integrate modified uridine triphosphate. The synthesis was initiated from a 20 bases complementary oligonucleotide and various conditions were tested. In lanes 1 and 6, all triphosphate nucleotide except dTTP were added in the reaction mix according to the manufacturer recommendation (negative control) to determine if the polymerase is stopped at positions where it needs to integrate a thymidine. In lane 2, dTTP was added to the reaction mix as the positive control where full length construct should be obtained. In lanes 3 and 7, 4 and 8 and 5 and 9, IdU, FdU and CldU were added to the reaction mix respectively to replace at 100% the dTTP. […] This is not the case for the Manta DNA polymerase as the only product observed is where the polymerase should have integrated a thymidine.
(§2) In order to identify the proper DNA polymerase that can utilise modified uridine triphosphate, we performed an elongation assay with different DNA polymerases and various combination of nucleotide mixes, using a 22-mer primer (PS2508, SEQ ID NO: 1) annealed to a 200-mer template (PS2509, SEQ ID NO:2). As the template contains a lot of instances of adenines, there are multiple positions where the polymerase must be able to incorporate uridine to be able to produce full length fill in reaction.
(§3) On the other hand, when dTTP or dUTP was replaced with a modified dUTP, a full-length reaction product was detected for both Manta™ and DeepVent DNA polymerases.
(§4) The conditions for the fill in reaction were as follow: dATP, dGTP, dCTP and Iodo dUTP were prepared in a mix at 500 μM each and used at a final concentration of 100 μM final; 1 μl of Manta™ or DeepVent polymerase were used on 10 pmoles of the 200-mer (PS2509) with the 22-mer primer (PS2508) pre-annealed to initiate the fill-in.
(§5) The incubation was done for 30 min at 65° C. for the Manta or 72° C. for the DeepVent, in a MiniAmp thermalCycler (Applied Biosystems) with lid at 105° C. to prevent evaporation.

Manta DNA polymerase = biological target: T3, Manta DNA polymerase (Geobacillus stearothermophilus, UniProt P52026); experiment: as above; format: biochemical; settings: modified nucleotide replaces dTTP at 100%; 65° C., 30 min
T3 construct: Bst DNA Polymerase, Large Fragment (e.g., Manta®); purchased
T3 sequence (P52026 289-876 limits assumed): T1 sequence (P52026 289-876 limits assumed)
Experimental: as §1, §2, §3, §4, §5

| Compound | distribution of each modified base in the final hairpin (MANTA polymerase [1]) | KD (concentration of the modified dUTP required to produce 50% of fill in reaction) compared with dTTP (MANTA polymerase [2]) | full length product in polymerisation reaction (DeepVent DNA polymerase) | full length product in polymerisation reaction (Manta DNA polymerase) |
| --- | --- | --- | --- | --- |
| pseudouridine-5′-triphosphate | equal distribution | almost twice the KD of dTTP |  |  |
| O=c1[nH]c(=O)n([C@H]2C[C@H](O)[C@@H](COP(=O)(O)OP(=O)(O)OP(=O)(O)O)O2)cc1Cl [CldU, 5-chloro-2′-deoxyuridine-5′-triphosphate] |  |  | full length products were obtained | full length products were obtained |
| O=c1[nH]c(=O)n([C@H]2C[C@H](O)[C@@H](COP(=O)(O)OP(=O)(O)OP(=O)(O)O)O2)cc1F [FdU, 5-fluoro-2′-deoxyuridine-5′-triphosphate] |  |  | full length products were obtained | full length products were obtained |
